Source: patent EP4755875A1, “PHTHALAZINONE COMPOUND AND PREPARATION METHOD THEREFOR, PHARMACEUTICAL COMPOSITION, AND USE” (Beijing Wehand-Bio Pharmaceutical Co., Ltd, priority 2023, dated 2025)

Columns and labels:
PC-12 cells [1] = experiment: In vitro neuroprotective activity, glutamate injury model (CCK-8 viability); assay type: cell-based; conditions: Rattus norvegicus; compound 10 µM; PC-12 cells injured with glutamate (8 mM) for 2 h; 24-hour incubation; relative to model group; read-out: Improved Viability (%)
Procedure: (§1) The in vitro neuroprotective models for evaluating the test compound were hydrogen peroxide injury and glutamate injury models. The PC-12 cells were seeded in a 96-well plate at a density of 1.5 × 10^4 cells/mL, 100 µL per well. The experiment included a blank group, a model group, and drug treatment groups. The hydrogen peroxide injury and glutamate injury models were stimulated for 2 h with a final concentration of 120 µM hydrogen peroxide or 8 mM glutamate, respectively. Subsequently, the cells in the blank group were cultured in complete medium, whereas the cells in the drug treatment groups were cultured by adding 10 µM test compound. After 24-hour incubation for all groups, 10 µL of CCK-8 was added to each well. 60 min later, the absorbance at 490 nm was measured using a microplate reader. The viability was calculated. Improved Viability = (Viability in Drug Treatment Group - Viability in Model Group)/(Viability in Model Group). Table 1 Protective Effects of Phthalazinone Compounds on Nerve Cell Injury Induced by Hydrogen Peroxide (120 µM)

PC-12 cells [2] = experiment: In vitro neuroprotective activity, hydrogen peroxide injury model (CCK-8 viability); assay type: cell-based; conditions: Rattus norvegicus; compound 10 µM; PC-12 cells injured with hydrogen peroxide (120 µM) for 2 h; 24-hour incubation; relative to model group; read-out: Improved Viability (%)
Procedure: as §1

[3] = test system: rats with ischemic stroke; experiment: In vivo anti-ischemic stroke activity, middle cerebral artery occlusion model; design: species or system SD rats

Row | SMILES | activation at 10 µM (PC-12 cells [1]) | activation at 10 µM (PC-12 cells [2]) | other results
1 | CCCCc1nn(CC)c(=O)c2c(OC)cccc12 [Compound 2, 2-Ethyl-4-butyl-8-methoxy-phthalazin-1(2H)-one] | 0.04 ± 1.05% | 35.8 ± 3.55% | 
2 | CCCCc1nn(CC2CC2)c(=O)c2c(OC)cccc12 [Compound 4, 2-(Cyclopropylmethyl)-4-butyl-8-methoxy-phthalazin-1(2H)-one] | 9.75 ± 3.22% | 23.4 ± 1.83% | 
3 | CCCCc1nn(CC2CCCCC2)c(=O)c2c(OC)cccc12 [Compound 5] | 14 ± 6.21% | 61.9 ± 6.53% | 
4 | CCCCc1nn(CC)c(=O)c2c(OCC3CCCCC3)cccc12 [Compound 7, 2-Ethyl-4-butyl-8-(cyclohexylmethoxy)-phthalazin-1(2H)-one] |  | 0.81 ± 0.37% | 
5 | CCCCc1nn(Cc2ccccc2)c(=O)c2c(OCC3CCCCC3)cccc12 [Compound 8, 2-Benzyl-4-butyl-8-(cyclohexylmethoxy)-phthalazin-1(2H)-one] | 7.99 ± 2.98% | 12.1 ± 3.25% | 
6 | CCCCc1n[nH]c(=O)c2c(OCCC)cccc12 [Compound 9, 4-Butyl-8-propoxy-phthalazin-1(2H)-one] | 7.48 ± 3.07% | 60.2 ± 5.87% | 
7 | CCCCc1nn(Cc2ccncc2)c(=O)c2c(OCCC)cccc12 [Compound 10, 2-(Pyridin-4-methylene)-4-butyl-8-propoxy-phthalazin-1(2H)-one] |  | 1.93 ± 2.37% | 
8 | CCCCc1nn(Cc2ccc(F)cc2)c(=O)c2c(OCCC)cccc12 [Compound 11, 2-(4-Fluorobenzyl)-4-butyl-8-propoxy-phthalazin-1(2H)-one] | 32.7 ± 6.21% | 96.8 ± 8.64% | 
9 | CCCCc1nn(CCC)c(=O)c2c(OCCC)cccc12 [Compound 12, 2-Propyl-4-butyl-8-propoxy-phthalazin-1(2H)-one] | 5.11 ± 2.33% | 12.9 ± 6.03% | 
10 | CCCCc1nn(CC2CC2)c(=O)c2c(OCCC)cccc12 [Compound 13, 2-(Cyclopropylmethyl)-4-butyl-8-propoxy-phthalazin-1(2H)-one] | 47.8 ± 8.14% | 3.14 ± 1.45% | 
11 | CCCCc1nn(CC2CCCCC2)c(=O)c2c(OCCC)cccc12 [Compound 14, 2-(Cyclohexylmethyl)-4-butyl-8-propoxy-phthalazin-1(2H)-one] | 3.16 ± 3.54% | 6.68 ± 3.51% | 
12 | CCCCc1nn(Cc2ccc3ccccc3c2)c(=O)c2c(OCCC)cccc12 [Compound 15, 2-(Naphthylmethyl)-4-butyl-8-propoxy-phthalazin-1(2H)-one] |  | 1.59 ± 1.13% | 
13 | CCCCc1nn(Cc2ccc(F)cc2)c(=O)c2c(OCC3CC3)cccc12 [Compound 17, 2-(4-Fluorobenzyl)-4-butyl-8-(cyclopropylmethoxy)-phthalazin-1(2H)-one] | 12.2 ± 2.57% | 33 ± 2.37% | survival rate of rats with ischemia-reperfusion injury ([3]; intragastric 10, 30 and 60 mg/kg, once daily for 7 days, FIG. 1): effectively increase; body weight of rats ([3]; intragastric 10, 30 and 60 mg/kg, once daily for 7 days, FIG. 2): reverse the decrease trend; volume of cerebral infarction ([3]; intragastric 10, 30 and 60 mg/kg, once daily for 7 days, TTC staining, FIG. 3): reduce the volume of cerebral infarction in a dose-dependent manner; effects compared with positive control drug butylphthalide (200 mg/kg) ([3]; survival rate, body weight, infarction volume, Compound 17 at 10, 30, 60 mg/kg by gavage): superior
14 | CCCCc1nn(CC)c(=O)c2c(OCc3ccc4ccccc4c3)cccc12 [Compound 20, 2-Ethyl-4-butyl-8-(naphthalene-2-methoxy)-phthalazin-1(2H)-one] | 8.77 ± 3.01% | 34 ± 3.92% | 
15 | CC1=NN(c2ccccc2)C(=O)C1 [Edaravone, reference compound] | 3.14 ± 0.85% | 11.3 ± 2.15% | 
